Patent US5262433A, “Tetrazoleacetic acid derivatives and method of aldose reductase inhibition therewith” (Wakamoto Pharmaceutical Co., Ltd., priority 1991, dated 1993)

Assays:
[1] = system: sorbitol accumulation in sciatic nerve; assay: Inhibitory activity test against sorbitol accumulation in sciatic nerve of streptozotocin diabetic rats; format: in vivo, rat (Sprague-Dawley); settings: for Rate of Inhibition of Sorbitol Accumulation in Sciatic Nerve (10 mg/kg): comparative compounds III (Table 4); for Rate of Inhibition of Sorbitol Accumulation, Sciatic nerve, 10 mg/kg: 10 mg/kg oral once a day for 5 days; for Rate of Inhibition of Sorbitol Accumulation, Sciatic nerve, 100 mg/kg: 100 mg/kg oral once a day for 5 days
Procedure: (§1) Groups of 6 to 8-week-old Sprague-Dawley male rats (4 animals per group) were fasted for 18 hours and streptozotocin was injected through the tail vein in a dose of 60 mg/kg, to obtain diabetic rats.
(§2) Immediately after the administration of streptozotocin, each compound to be tested was orally administered to these rats in the form of a suspension at a dose of 5 mg/kg, 10 mg/kg and 100 mg/kg (each was suspended in a 0.5% sodium carboxymethyl cellulose solution) once a day (at 9 a.m.) for 5 days.
(§3) During the test, the rats took diet and drank water freely. Four hours after the final administration of the drug in the 5th day's morning (at 9 a.m.), the rats were sacrificed and then the sciatic nerve and lens were removed to determine the amounts of sorbitol accumulated therein.
(§4) The results are expressed in the percentage obtained when the value obtained on the control to which no drug was administered is defined 100.

[2] = system: sorbitol accumulation in lens; assay: Inhibitory activity test against sorbitol accumulation in lens of streptozotocin diabetic rats; format: in vivo, rat (Sprague-Dawley); settings: 100 mg/kg oral once a day for 5 days, STZ diabetic rats
Procedure: as §1, §2, §3, §4

[3] = molecular target: T1, aldose reductase (Rattus norvegicus, UniProt P07943); assay: Aldose Reductase Inhibition Test; format: biochemical, rat (male SD rats, crystalline lenses); settings: rat lens enzyme; DL-glyceraldehyde 10 mM, pH 6.2, 30° C., 5 minutes
T1 construct: crystalline lenses were immediately removed and stored at -80° C; from tissue; host or cells: crystalline lenses of six-week-old male SD rats
Procedure: Six-week-old male SD rats were anesthetized with ether and killed. The their crystalline lenses were immediately removed and stored at -80° C. The lenses were homogenized in 3 volumes of 135 mM sodium potassium phosphate buffer (pH 7.0) and centrifuged at 30,000 rpm for 30 minutes. The resulting supernatant was dialyzed overnight against 0.05M sodium chloride solution to obtain an aldose reductase solution. All operations were conducted at 4° C. and the enzyme solution was stored at -80° C.
The activity of aldose reductase was determined according to a partially modified method of J. H. Kinoshita et al. (J. Biol. Chem., 1965, 240, p. 877). More specifically, 0.1 ml of DL-glyceraldehyde (final concentration: 10 mM) was added to 0.9 ml of 100 mM sodium potassium phosphate buffer (pH 6.2) which contained lithium sulfate (final concentrationL 400 mM), reduced nicotinamide adenine dinucleotide phosphate (final concentration: 0.15 mM), the enzyme solution, and the compound to be evaluated (final concentration: 10^-5 M, 10^-6 M, 10^-7 M or 10^-8 M), and then the reaction was conducted at 30° C. for 5 minutes. During the reaction, the change in the absorbance at 340 nm with time was monitored.
The maximum reducing rate of the absorbance (U) during the reaction was determined. By subtracting, from this value, the maximum reducing rate (U0) at 340 nm of the reaction solution before the addition of the substrate (DL-glyceraldehyde), the reaction rate (V=U-U0) was calculated as a true reaction rate in the presence of the compound to be tested.
The same procedure was repeated except for the absence of the compound to be tested. A true reaction rate (V0) in case the enzyme was not inhibited was calculated (V0 =U^1 -U0^1). The aldose reductase inhibitory activity of the test compounds was determined according to the following formula:
Rate of Inhibition (%)=(V0 -V)/V0 ×100
The concentration of inhibitor giving 50% inhibition of enzyme activity (IC50) was estimated from the least-square regression line of the log dose-response curve.

[4] = sciatic nerve, STZ diabetic rats

Compound | Rate of Inhibition of Sorbitol Accumulation in Sciatic Nerve (10 mg/kg) ([1]; sciatic nerve) | sorbitol accumulation rate [1] | Rate of Inhibition of Sorbitol Accumulation, lens, 100 mg/kg [2] | IC50 [3] | Rate of Inhibition of Sorbitol Accumulation, Sciatic nerve, 5 mg/kg ([1]; po, 5 mg/kg, 120 h) | Rate of Inhibition of Sorbitol Accumulation, Sciatic nerve, 10 mg/kg [1, 4] | Rate of Inhibition of Sorbitol Accumulation, Sciatic nerve, 100 mg/kg [1, 4] | Rate of Inhibition of Sorbitol Accumulation, Sciatic nerve, 5 mg/kg ([1]; sciatic nerve, 5 mg/kg oral once a day for 5 days, STZ diabetic rats)
[5-(2-methylthio-3-thienyl)tetrazol-1-yl]acetic acid 2-hydroxyethyl ester [Example 2] | 63% |  |  |  |  |  |  | 
[5-[(3-methylsulfonylamino)-2-thienyl]tetrazol-1-yl] acetic acid 2-hydroxyethyl ester [Example 4] | 40% |  |  |  |  |  |  | 
CCOC(=O)Cn1nnnc1-c1ccsc1 [compound 2, reference compound] |  | 63% |  |  |  |  |  | 
O=C(Cn1nnnc1-c1ccoc1)OCCO [Example 12, [5-(3-furyl)tetrazol-1-yl] acetic acid 2-hydroxyethyl ester] |  |  | 68% | 0.36 µM | 41% | 70% | 107% | 
O=C(Cn1nnnc1-c1ccsc1)OCCO [Example 1, [5-(3-thienyl)tetrazol-1-yl] acetic acid 2-hydroxyethyl ester] |  | 73% | 50% | 0.36 µM | 48% | 73% | 102% | 
O=C(Cn1nnnc1-c1ccsc1)OCCCCCO [Example 18, [5-(3-thienyl)tetrazol-1-yl]acetic acid 5-hydroxypentyl ester] |  |  | 7% | 1.3 µM | -27% | 16% | 102% | 
O=C(Cn1nnnc1-c1ccsc1)OCCCO [Example 15, [5-(3-thienyl)tetrazol-1-yl]acetic acid 3-hydroxypropyl ester] |  |  | 36% |  | 24% | 37% | 110% | 
O=C(Cn1nnnc1-c1ccsc1)OCCCCO [Example 16, [5-(3-thienyl)tetrazol-1-yl]acetic acid 4-hydroxybutyl ester] |  |  | -10% | 0.39 µM | -5% | 35% | 103% | 
COCCOC(=O)Cn1nnnc1-c1ccsc1 [Example 19, [5-(3-thienyl)tetrazol-1-yl]acetic acid 2-methoxyethyl ester] |  |  | 13% | 0.21 µM | 22% | 38% | 103% | 
O=C(O)Cn1nnnc1-c1ccsc1 [reference compound] | 53% |  |  |  |  |  |  | 
[5-(2-thienyl)tetrazol-1-yl] acetic acid 2-hydroxyethyl ester [Example 3] | 35% |  |  |  |  |  |  | 
[5-[5-(3-phenylpropyl)-2-thienyl]tetrazol-1-yl]acetic acid 2-hydroxyethyl ester [Example 5] | 40% |  |  |  |  |  |  | 
CC(/C=C1\SC(=S)N(CC(=O)O)C1=O)=C\c1ccccc1 [ONO-2235, (E)-3-carboxymethyl-5-[(2E)-methyl-30 phenylpropenylidene]rhodan, reference compound] |  |  |  |  |  | 0% | 40% | 0%
O=C(Cn1nnnc1-c1ccccc1)OCCO [Example 6, (5-phenyltetrazol-1-yl) acetic acid 2-hydroxyethyl ester] |  |  | 24% | 3.1 µM | 29% | 46% | 103% | 
